Patent US6465523B1, “4-substituted-3-substituted-amino-cyclobut-3-ene-1,2-diones and analogs thereof as novel potassium channel openers” (American Home Products, priority 1998, dated 2002)

Tests used:
[1] = tested on: Bladder Tissue; assay: Smooth muscle (bladder) relaxing activity: inhibition of KCl-enhanced contractile activity of isolated rat bladder strips; type: cell-based, Sprague-Dawley rats; conditions: for IC50 / inhibition at 30 µM / Bladder Tissue, I = percent inhibition of contractile activity: rat bladder strips, additional 15 mM KCl; for IC50: 50% inhibition of pre-drug contractile activity; for Ratio Aorta IC50 / Bladder IC50: selectivity for bladder over aorta tissue, rat; for inhibition at 30 µM / Bladder Tissue, I = percent inhibition of contractile activity: percent inhibition at 30 μM (footnote *); for inhibition at 30 µM: read-out: Bladder Tissue, I = percent inhibition of contractile activity
Experimental: The smooth muscle (bladder) relaxing activity of the compounds of this invention was established in accordance with standard pharmaceutically accepted test procedures with representative compounds as follows:
Sprague-Dawley rats (150-200 g) are rendered unconscious by CO2 asphyxiation and then euthanized by cervical dislocation. The bladder is removed into warm (37° C.) physiological salt solution (PSS) of the following composition (mM): NaCl, 118.4; KCl, 4.7; CaCl2, 2.5; […]; NaHCO3, 24.9; KH2PO4, 1.2; glucose, 11.1; EDTA, 0.023; gassed with […]; pH 7.4. The bladder is opened and then cut into strips 1-2 mm in width and 7-10 mm in length. The strips are subsequently suspended in a 10 mL tissue bath under an initial resting tension of 1.5 g. The strips are held in place by two surgical clips one of which is attached to a fixed hook while the other is attached to an isometric force transducer. […] The carbachol is then washed out and the tissue allowed to relax to its resting level of activity. Following a further 30 min. period of recovery an additional 15 mM KCl are introduced into the tissue bath. This increase in KCl concentration results in a large increase in the amplitude of spontaneous contractions (and initiation of contractions in previously quiescent strips) superimposed upon a small increase in basal tone. Following stabilization of this enhanced level .of contractile activity, incremental increases in the concentration of test compound or vehicle are introduced into the tissue bath. Contractile activity is measured for each compoundor vehicle concentration during the last minute of a 30 minute challenge.
The isometric force developed by the bladder strips is measured using a […] to elicit 50% inhibition of pre-drug contractile activity (IC50 concentration) and is calculated from this concentra-tion-response curve.

[2] = tested on: Aorta Tissue; assay: Smooth muscle (aorta) relaxing activity: inhibition of KCl-evoked contracture of isolated rat thoracic aorta rings; type: cell-based, Sprague-Dawley rats; conditions: 30-35 mM KCl contracture, 50% inhibition of pre-drug contractile force
From the text: The smooth muscle (aorta) relaxing activity of the compounds of this invention was established in accordance with standard pharmaceutically accepted test procedures with representative compounds as follows:
Male Sprague-Dawley rats (150-200 g) are rendered unconscious by CO2 asphyxiation and then euthanized by cervical dislocation. The thoracic aorta is removed into warm (37 deg.C.) physiological salt solution (PSS) of the following composition (mM): NaCl; 118.4; KCl, 4.7; CaCl2, 2.5; MgSO4.7H2O, 1.2; NaHCO3, 24.9; KH2PO4, 1.2; glucose, 11.1; EDTA, 0.023; gassed with 95% O2/5% CO2; pH 7.4. The aorta is cleaned of fat and loose adventitia and cut into rings 3-4 mm in width. The rings are subsequently suspended between two stainless steel wire tissue holders in a 10 ml tissue bath. One wire tissue holder is attached to a fixed hook while the other is attached to an isometric force transducer. Resting tension is set at 1 g. The tissues are to recover for a period of 60 mins. prior to beginning the experiment. Tissues are challenged with PSS containing 25 mM KCl to elicit a contracture. The tissues are then washed repeatedly with fresh PSS over a period of 30 mins. and allowed to recover to baseline tension. PSS containing 30-35 mM KCl is then introduced into the tissue bath to evoke a contracture that is allowed to stabilize for not less than 45 minutes. (Other stimuli such as norepine-phrine, PGF2a, histamine, angiotensin II, endothelin or PSS containing 80 mM KCl may also be used to evoke a contracture as necessary). Increasing concentrations of test compound or vehicle are then added to the tissue bath in a cumulative fashion.
Isometric force development by the aortic rings is measured using a force transducer and recorded on a polygraph. The percentage inhibition of contractile force evoked by each concentration of a given test compound is used to generate a concentration-response curve. The concentration of test compound required to elicit 50% inhibition of pre-drug contractile force (IC50 concentration) is calculated from this dose-response curve. (Log concentration versus response curves are approximately linear between 20% and 80% of the maximum response. As such, the IC50 concentration of the drug is determined by linear regression analysis (where x=log concentration and y=% inhibition) of the data points in the 20% to 80% region of the curve]. The maximum percentage inhibition of contractile force evoked by a test compound is also recorded for concentrations of test compound < or = to 30 μM. Data collected from 2 animals are averaged for primary screens.

## CCC(C)(C)Nc1c(-c2ccc(OC)cc2)c(=O)c1=O [Example 2, 3-(1,1-Dimethyl-propylamino)-4-(4-methoxy-phenyl)-cyclobut-3-ene-1,2-dione]
[1]
  IC50: 2.5 µM
  Ratio Aorta IC50 / Bladder IC50: 15.1
other
  melting point: 133 to 135 °C
[2]
  IC50: 37.6 ± 6.05 µM

## CC(Nc1c(-c2ccc(C#N)cc2)c(=O)c1=O)C(C)(C)C (stereo not drawn) [Example 9, 4-[3,4-Dioxo-2-(1,2,2-trimethyl-propylamino)-cyclobut-1-enyl]benzonitrile]
[1]
  inhibition at 30 µM: 27.2%

## CC(Nc1c(/C=C/c2ccc(C#N)cc2)c(=O)c1=O)C(C)(C)C (stereo not drawn) [Example 27, 4-{(E)-2-[3,4-Dioxo-2-(1,2,2-trimethyl-propylamino)-cyclobut-1-enyl]-vinyl}-benzonitrile]
[1]
  IC50: 2.94 µM
other
  melting point: 240.2 to 241 °C

## COc1ccc(-c2c(N(C)C(C)C)c(=O)c2=O)cc1 [Example 3, 3-(Isopropyl-methyl-amino)-4-(4-methoxy-phenyl)-cyclobut-3-ene-1,2-dione]
[1]
  IC50: 12 µM
  Ratio Aorta IC50 / Bladder IC50: 3.85
other
  melting point: 109 to 115 °C
[2]
  IC50: 46.2 ± 7.8 µM

## COc1ccc(Cc2c(NC(C)C(C)(C)C)c(=O)c2=O)cc1.COc1ccc(Cc2c(NC(C)C(C)(C)C)c(=O)c2=O)cc1.COc1ccc(Cc2c(NC(C)C(C)(C)C)c(=O)c2=O)cc1.COc1ccc(Cc2c(NC(C)C(C)(C)C)c(=O)c2=O)cc1.O (stereo not drawn) [Example 23, 3-(4-Methoxy-benzyl)-4-(1,2,2-trimethyl-propylamino)-cyclobut-3-ene-1,2-dione One-quarter Hydrate]
[1]
  Bladder Tissue, I = percent inhibition of contractile activity: 1 = 10.2%

## COc1ccc(C(C(C)=O)c2c(N(C(=O)OC(C)(C)C)C(C)C(C)(C)C)c(=O)c2=O)cc1 (stereo not drawn) [Example 24]
[1]
  IC50: 15.9 µM

## COc1ccc(-c2c(NCCc3ccc(C(C)(C)C)cc3)c(=O)c2=O)cc1 [Example 8, 3-[2-(4-tert-Butyl-phenyl)-ethylamino]-4-(4-methoxy-phenyl)-cyclobut-3-ene-1,2-dione]
[1]
  IC50: 11.2 µM
other
  melting point: 258.1 to 260.2 °C

## 3-(1,1-Dimethyl-2-phenyl-ethylamino)-4-(3-methoxy-phenyl)-cyclobut-3-ene-1,2-dione [Example 25]
[1]
  Bladder Tissue, I = percent inhibition of contractile activity: 1 = 30.35%

## CC(Nc1c(-c2ccc(Br)cc2)c(=O)c1=O)C(C)(C)C (stereo not drawn) [Example 22, 3-(4-Bromo-phenyl)-4-(1,2,2-trimethyl-propylamino)-cyclobut-3-ene-1,2-dione]
[1]
  IC50: 25.7 µM
other
  melting point: 210.6 to 211.3 °C

## COc1ccc(-c2c(NC(C)C(C)(C)C)c(=O)c2=O)cc1 (stereo not drawn) [Example 4, 3-(4-Methoxy-phenyl)-4-(1,2,2-trimethyl-propylamino)-cyclobut-3-ene-1,2-dione]
[1]
  IC50: 9.51 µM
  Ratio Aorta IC50 / Bladder IC50: 2.56
other
  melting point: 179 to 181 °C
[2]
  IC50: 24.2 ± 6.3 µM

## CC(Nc1c(-c2ccc(C(F)(F)F)cc2)c(=O)c1=O)C(C)(C)C (stereo not drawn) [Example 10, 3-(4-Trifluoromethyl-phenyl)-4-(1,2,2-trimethyl-propylamino)-cyclobut-3-ene-1,2-dione]
[1]
  IC50: 15.6 µM

## CC(=O)C(c1ccc(C(F)(F)F)cc1)c1c(NC(C)C(C)(C)C)c(=O)c1=O (stereo not drawn) [Example 21, 3-[2-Oxo-1-(4-trifluoromethyl-phenyl)-propyl]-4-(1,2,2-trimethyl-propylamino)-cyclobut-3-ene-1,2-dione]
[1]
  IC50: 16.2 µM

## COc1ccc(-c2c(NCC(C)c3ccccc3)c(=O)c2=O)cc1 (stereo not drawn) [Example 7, 3-(4-Methoxy-phenyl)-4-(2-phenyl-propylamino)-cyclobut-3-ene-1,2-dione]
[1]
  inhibition at 30 µM: 7.4%
other
  melting point: 215.4 to 216.2 °C

## COc1ccc(-c2c(NCCc3cccc(C(F)(F)F)c3)c(=O)c2=O)cc1 [Example 5, 3-(4-Methoxy-phenyl)-4-[2-(3-trifluoromethyl-phenyl)-ethylamino]-cyclobut-3-ene-1,2-dione]
[1]
  inhibition at 30 µM: 9.75%
other
  melting point: 220.2 to 222.3 °C

## CCC(C)(C)Nc1c(-c2cccnc2)c(=O)c1=O.Cl [Example 12, 3-(1,1-Dimethyl-propylamino)-4-(pyridin-3-yl)-cyclobut-3-ene-1,2-dione Hydrochloride]
[1]
  inhibition at 30 µM: 26%
other
  melting point: 152 to 155.9 °C (dec.)

## CCC(C)(C)Nc1c(-c2ccc(C(F)(F)F)cc2)c(=O)c1=O [Example 11, 4-(4Trifluoromethyl-phenyl)-3-(1,1-dimethyl-propylamino)-cyclobut-3-ene-1,2-dione]
[1]
  inhibition at 30 µM: 34.2%
other
  melting point: 115.4 to 119 °C (dec.)

## COc1ccc(-c2c(NC(C)(C)Cc3ccccc3)c(=O)c2=O)cc1 [Example 1, 3-(1,1-Dimethyl-2-phenyl-ethylamino)-4-(4-methoxy-phenyl)-cyclobut-3-ene-1,2-dione]
[1]
  IC50: 1.2 µM
  Ratio Aorta IC50 / Bladder IC50: 2.71
other
  melting point: 150 to 151 °C
[2]
  IC50: 3.25 ± 0.35 µM

## CC(Nc1c(/C=C/c2ccc(Br)cc2)c(=O)c1=O)C(C)(C)C (stereo not drawn) [Example 26, 3-[(E)-2-(4-Bromo-phenyl)-vinyl]-4-(1,2,2-trimethyl-propylamino)-cyclobut-3-ene-1,2-dione]
[1]
  inhibition at 30 µM: 15.6%

## COc1ccc(-c2c(N[C@H](C)c3ccccc3)c(=O)c2=O)cc1 [Example 6, (−)-3-(4-Methoxy-phenyl)-4-((R)-1-phenyl-ethylamino)-cyclobut-3-ene-1,2-dione]
[1]
  IC50: 26.9 µM
other
  melting point: 158.7 to 160.1 °C
